According to patent publication US20260183274A1, “PDK1 REGULATORY COMPOUND AND COMPOSITION CONTAINING THE SAME” (PROVIBIO CO., LTD., priority 2024, published 2026):
Entries after “also recorded” stand apart in the source; their conditions may differ.

Experiments:
[1] = molecular target: T1, PDK1 (phosphoinositide-dependent kinase 1) (Homo sapiens, UniProt O15530); assay: PDK1 phosphorylation (pPDK1) by flow cytometry in SU-DHL-8 cells; type: cell-based; conditions: SU-DHL-8, 24 hours, vs control group, FIG. 3
T1 construct: endogenous in cells; host or cells: SU-DHL-8 (ATCC CRL-2961)
T1 sequence (O15530 1-556): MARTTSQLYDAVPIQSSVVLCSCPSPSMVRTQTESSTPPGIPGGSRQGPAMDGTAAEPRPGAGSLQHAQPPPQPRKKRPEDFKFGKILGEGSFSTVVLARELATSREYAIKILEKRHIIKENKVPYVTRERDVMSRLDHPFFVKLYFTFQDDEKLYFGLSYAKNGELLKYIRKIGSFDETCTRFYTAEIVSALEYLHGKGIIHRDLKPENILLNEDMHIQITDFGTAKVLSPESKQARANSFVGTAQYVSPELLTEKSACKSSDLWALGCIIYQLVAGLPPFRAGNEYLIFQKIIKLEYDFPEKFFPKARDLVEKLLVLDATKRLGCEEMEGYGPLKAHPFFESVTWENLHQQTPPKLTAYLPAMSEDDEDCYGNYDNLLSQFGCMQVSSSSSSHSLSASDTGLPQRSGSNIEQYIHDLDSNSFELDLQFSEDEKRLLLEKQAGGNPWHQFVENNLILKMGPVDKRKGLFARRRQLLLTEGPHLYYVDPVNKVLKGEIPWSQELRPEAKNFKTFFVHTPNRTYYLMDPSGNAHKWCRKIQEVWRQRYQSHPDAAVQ
Experimental: After stabilizing the cells, the compound of the present invention was added, and the cells were cultured for 24 hours.
After drug treatment, the cells were harvested, and the Fc receptor blocking process was performed. The cells were then fixed and permeabilized using the Intracellular Staining Kit (Cat. No. BD554715) from BD Biosciences. Subsequently, the intracellular pPDK1 was stained using the pPDK1-PE fluorescently labeled antibody (BD Biosciences).
Referring to the figure, the vertical axis represents the phosphorylation level of PDK1 (phospho-PDK1 expression level), and the horizontal axis denotes the concentration-dependent treatment conditions of each compound.

[2] = system: HCT-116 colon cancer cell lines; assay: Matrigel Invasion Assay, HCT-116; type: cell-based, human; conditions: 24 hours treatment, FIG. 30
Experimental: To evaluate the metastasis inhibitory efficacy of the compounds of the present invention on HCT-116 colon cancer cell lines, an Invasion Assay using Matrigel was performed to assess the cells' invasion ability.
First, Matrigel was thawed on ice in RPMI-1640 medium without FBS, then diluted with DMEM at a ratio of 1:20.
The diluted Matrigel mixture was applied to the upper chamber at 100 μl per well, and 750 μl of RPMI-1640 without FBS was added to the lower chamber.
The plates were then incubated at 37° C. for 1 hour to allow the Matrigel to solidify.
After coating, the Matrigel mixture in the upper chamber was removed using a pipette, and the chamber was washed with RPMI without FBS.
Human-derived colorectal cancer cell line HCT-116, obtained from the Korean Cell Bank, was cultured in RPMI-1640 medium containing 10% FBS.
Following stabilization, the cells were harvested using Trypsin-EDTA treatment, centrifuged at 1,200 rpm for 3 minutes, the supernatant was removed, and the cells were resuspended in the same medium, the medium in the lower chamber was replaced with 750 μl of RPMI-1640 supplemented with 10% FBS, and the cells were seeded into the upper chamber at a density of 5×10^4 cells/well.
The cells were cultured for 24 hours after attachment, and then the compounds according to the present invention (G078, G085, G086, G088, G089, PBK-2024-010, PBK-2025-010, PBK-2025-013, PBK-2025-016) and the control substance DMSO were diluted and added to the upper chamber after removing the medium.
Additionally, the medium in the lower chamber was replaced with fresh RPMI-1640 containing FBS, and the culture was continued.
After an additional 24 hours, the medium was removed, and 1 ml of methanol was added for 10 minutes to fix the cells.
Subsequently, 1 ml of Hematoxylin was added and reacted for 5 minutes, followed by 1 ml of Eosin, which was reacted for 30 seconds. The sample was then washed with distilled water (DW).
After staining was complete, any remaining cells in the upper chamber were removed. Finally, the infiltrated cells were observed under a microscope, photographed, and the degree of infiltration was analyzed.

[3] = system: Human Osteosarcoma, Saos-2; assay: Relative cell viability CCK-8, Saos-2; type: cell-based; conditions: for Relative cell viability (%), Saos-2: 48 hours
Experimental: (§1) Human-derived head and neck cancer cell line Fadu and osteosarcoma cell line Saos-2 were cultured in MEM medium containing 10% FBS, 100 U/mL penicillin, and 100 μg/mL streptomycin.
(§2) Following stabilization, the cells were harvested using Trypsin-EDTA treatment, centrifuged at 1,200 rpm for 3 minutes, the supernatant was removed, and the cells were resuspended in the same medium. They were then seeded into a 96-well plate (Costar 96-well cell culture plate, Corning) at 100 μL per well, and the conditions were adjusted as indicated in Table 5.
(§3) The cells were cultured in a 5% CO2 incubator at 37° C. for 24 hours, and after stabilization of the cells, each plate was washed with 200 μL of PBS per well and treated with 50 μL of culture medium per well.
(§4) After that, 10 μL of CCK-8 was added to each well, and the plate was incubated again at 37° C. in a 5% CO2 incubator for 2 hours.
(§5) In other words, when the survival rate of untreated cells (DMSO) is set at 100%, the relative cell survival rate in each group treated with the drug at different concentrations is indicated.

[4] = system: Human Head and Neck cancer, Fadu; assay: Relative cell viability CCK-8, Fadu; type: cell-based; conditions: Fadu cells, relative to untreated cells
Experimental: as §1, §2, §3, §4, §5

[5] = system: Human Bladder cancer cell, T24; assay: Relative cell viability CCK-8, T24; type: cell-based; conditions: for Relative cell viability (%), T24: 48 hours
Experimental: (§6) Human-derived breast cancer cell line MCF-7, human-derived lung cancer cell line A549, human-derived colorectal cancer cell line HCT-116, human pancreatic cancer cell line AsPC-1, glioblastoma cell line A172, and melanoma cell line Malme-3M were obtained from the Korean Cell Bank. gastric cancer cell line SNU-719, and bladder cancer cell line T24 were cultured in RPMI-1640 medium containing 10% FBS.
as §2, §3, §4, §5

[6] = system: Human Pancreas Adenocarcinoma cell line, AsPC-1; assay: Relative cell viability CCK-8, AsPC-1; type: cell-based; conditions: 48 hours; for viability at 1 µM: ASPC1, 1 μM; for viability at 10 µM: ASPC1, 10 μM; for viability at 30 µM: ASPC1, 30 μM; for viability at 50 µM: ASPC1, 50 μM
Experimental: as §6, §2, §3, §4, §5

[7] = system: Human Colorectal Carcinoma cell line, HCT-116; assay: Relative cell viability CCK-8, HCT-116; type: cell-based; conditions: Homo sapiens, HCT-116, 48 hours
Experimental: as §6, §2, §3, §4, §5

[8] = system: Human Melanoma cancer cell, Malme-3M; assay: Relative cell viability CCK-8, Malme-3M; type: cell-based; conditions: Homo sapiens, Malme-3M, 48 hours
Experimental: as §6, §2, §3, §4, §5

With `Nc1ncccc1C(=O)NCCCCCCCCCCCCN1CCOCC1` [Compound 2, 2-Amino-N-(12-morpholin-4-yl-dodecyl)-nicotinamide] the “Inhibition of PDK1 phosphorylation (phospho-PDK1 expression level)” value (from here on “Inhibition of PDK1 phosphorylation”) ([1]; listed as GO48) was “stronger PDK1 inhibition; also recorded: high inhibitory effects even at low concentrations”.

In the case of `Nc1ncccc1C(=O)NCCCCCCCCCCCCN1CCNCC1` [Compound 5, 2-Amino-N-(12-(piperazin-1-yl)dodecyl)-nicotinamide], the “Number of infiltrated cells (invasion)” value [2] is reported as “reduction in the number of infiltrated cells”, the “Relative cell viability (%), Saos-2” value ([3]; 1 μM, listed as GO78, 1 µM) is reported as 28.36% and the “Relative cell viability (%), Saos-2” value ([3]; 10 μM, listed as GO78, 10 µM) is reported as 33.69%. For the same compound, the “Relative cell viability (%), Saos-2” value ([3]; 30 μM, listed as GO78, 30 µM) was 19.77%, the “Relative cell viability (%), Saos-2” value ([3]; 50 μM, listed as GO78, 50 µM) was 2.60% and the “Relative cell viability (%)” value ([4]; 10 μM, listed as GO78, 10 µM) was 6.63%. The “Relative cell viability (%)” value ([4]; 30 μM, listed as GO78, 30 µM) was 4.93%, the “Relative cell viability (%)” value ([4]; 50 μM, listed as GO78, 50 µM) was 0.99% and the viability at 1 µM ([4]; Homo sapiens, FaDu, 1 μM) was 4.18%. For the same compound, the “Relative cell viability (%), T24” value ([5]; 1 μM, listed as GO78, 1 µM) was 28.34%, the “Relative cell viability (%), T24” value ([5]; 10 μM, listed as GO78, 10 µM) was 30.42% and the “Relative cell viability (%), T24” value ([5]; 30 μM, listed as GO78, 30 µM) was 29.73%. The “Relative cell viability (%), T24” value ([5]; 50 μM, listed as GO78, 50 µM) was 29.32%.

For `Nc1ncccc1C(=O)NCCCCCCCCCCCCN1CCNCC1` [Compound 14, 2-Amino-N-(12-(piperazin-1-yl)dodecyl)nicotinamide], the viability at 1 µM [6] was 43.1%, the viability at 10 µM [6] was 45.4% and the viability at 30 µM [6] was 36.8%. The viability at 50 µM [6] was 30.5%, the viability at 1 µM [7] was 14.2% and the viability at 10 µM [7] was 12.3%. The viability at 30 µM [7] was 9.38%, the viability at 50 µM [7] was 7.61% and the “Inhibition of PDK1 phosphorylation” value ([1]; listed as GO88) was “stronger PDK1 inhibition; also recorded: high inhibitory effects even at low concentrations”. It also gave a viability at 1 µM ([8]; 1 μM) of 43.7%, a viability at 10 µM ([8]; 10 μM) of 31.2% and a viability at 30 µM ([8]; 30 μM) of 16.3%. The viability at 50 µM ([8]; 50 μM) was 15.9%, the “Relative cell viability (%), Saos-2” value ([3]; 50 μM, listed as GO88, 50 µM) was 0.00% and the viability at 1 µM ([3]; Homo sapiens, SAOS-2, 48 h, 1 μM) was 47.1%. For the same compound, the viability at 10 µM ([3]; Homo sapiens, SAOS-2, 48 h, 10 μM) was 34.2%, the viability at 30 µM ([3]; Homo sapiens, SAOS-2, 48 h, 30 μM) was 16.3% and the “Relative cell viability (%)” value ([4]; 1 μM, listed as GO88, 1 µM) was 7.05%. The “Relative cell viability (%)” value ([4]; 10 μM, listed as GO88, 10 µM) was 73.25%, the “Relative cell viability (%)” value ([4]; 30 μM, listed as GO88, 30 µM) was 57.64% and the “Relative cell viability (%)” value ([4]; 50 μM, listed as GO88, 50 µM) was 7.08%. The “Relative cell viability (%), T24” value ([5]; 1 μM, listed as GO88, 1 µM) was 9.88%, the “Relative cell viability (%), T24” value ([5]; 10 μM, listed as GO88, 10 µM) was 11.01% and the “Relative cell viability (%), T24” value ([5]; 30 μM, listed as GO88, 30 µM) was 9.22%. For the same compound, the “Relative cell viability (%), T24” value ([5]; 50 μM, listed as GO88, 50 µM) was 7.47%.

`Nc1nc(NC(=O)CCCCCCCCCCCCN2CCN(CCO)CC2)nc2nc[nH]c12` [Compound 15, 12-[4-(2-hydroxyethyl)piperazin-1-yl]dodecyl-N-(6-aminopurine-2-yl) carboxamide] showed a viability at 1 µM [6] of 40.9%, a viability at 10 µM [6] of 42.8% and a viability at 30 µM [6] of 44.1%. The viability at 50 µM [6] was 41.5%, the “Number of infiltrated cells (invasion)” value [2] was “reduction in the number of infiltrated cells” and the viability at 1 µM [7] was 12.1%. For the same compound, the viability at 10 µM [7] was 11.5%, the viability at 30 µM [7] was 10% and the viability at 50 µM [7] was 9.08%. For the same compound, the viability at 1 µM ([4]; Homo sapiens, FaDu, 1 μM) was 4.15%, the viability at 10 µM ([4]; Homo sapiens, FaDu, 10 μM) was 29.3% and the viability at 30 µM ([4]; Homo sapiens, FaDu, 30 μM) was 41.5%. For the same compound, the viability at 50 µM ([4]; Homo sapiens, FaDu, 50 μM) was 9.44%, the viability at 1 µM ([5]; Homo sapiens, 48 h, 1 μM) was 7.92% and the viability at 10 µM ([5]; Homo sapiens, 48 h, 10 μM) was 9.29%. For the same compound, the viability at 30 µM ([5]; Homo sapiens, 48 h, 30 μM) was 9.57% and the viability at 50 µM ([5]; Homo sapiens, 48 h, 50 μM) was 8.75%.

With `Nc1ncccc1C(=O)NCCCCCCCCCCCCF` [Compound 57, 2-Amino-N-(12-fluoro-dodecyl)-nicotinamide] the “Inhibition of PDK1 phosphorylation” value [1] was “exhibited an inhibitory effect on PDK1 phosphorylation”.
